Assay results: PMC7531004, “Discovery of gramicidin A analogues with altered activities by multidimensional screening of a one-bead-one-compound library” (Nature Communications, 2020)
Where a SMILES comes first, the peptide text is derived from it. [ ]: non-standard residue; d: D form. The star is where a group is joined. NHCH2CH2OH = OCCN*; For = O=C*

What was measured:
[1] = cell viability/%
Procedure, shortened: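 Peptide stocks diluted 250× in growth medium; P388 cells 1 × 10^4 cells/mL final; 37 °C, 5% CO2, 92 h. WST-1 + 1-methoxy PMS, 4 h, A415. Output: % viability.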

[2] = test system: Streptococcus pyogenes SSI-9; assay: Antibacterial activity assay of bead-derived peptides (three concentrations); assay type: cell-based; set-up: key: +++: inhibition by the 640-fold diluted peptide solution; ++: inhibition by the 160-fold diluted solution; +: inhibition by the 40-fold diluted solution; -: no inhibition; settings: S. pyogenes, bead-derived peptide solution, three concentrations
Procedure, shortened: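 First, each peptide stock was diluted 4- and 16-fold in DMSO; next, the three solutions were mixed with S. pyogenes SSI-9 suspension (2 × 10^5 CFU) in cation-adjusted Mueller Hinton Broth plus 5% laked horse blood; finally, plates stood 18 h at 37 °C before checking for grown-cell precipitation.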

[3] = H+/Na+ transport assay of bead-derived peptides (one-point); assay type: biochemical; set-up: key: relative activity; mean of two control wells = 1.00; settings: bead-derived peptide solution, EYPC/EYPG LUVs;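 further: relative to parent gramicidin A activity set to 1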
Procedure, shortened: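 One-point screen: peptide + pyranine-loaded LUVs, 30 min RT with vortexing, 96-well. Read-out is fluorescence intensity scaled as 100 × (Ix – I0)/(Imax – I0). Imax from Triton X-100, I0 from untreated vesicles, and the mean of the two control wells is set to 1.00.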

Row | SMILES | viability [1] [%] | antibacterial activity [2] | H+/Na+ transport activity normalized against the value of 1 (1.00) [3]
1 | CNC(=O)C[C@@H](NC(=O)[C@H](Cc1c[nH]c2ccccc12)NC(=O)[C@@H](CC(C)C)NC(=O)[C@H](Cc1c[nH]c2ccccc12)NC(=O)[C@@H](CC(C)C)NC(=O)[C@H](Cc1c[nH]c2ccccc12)NC(=O)[C@H](NC(=O)[C@@H](NC(=O)[C@H](NC(=O)[C@H](C)NC(=O)[C@H](NC(=O)[C@H](C)NC(=O)CNC(=O)[C@@H](NC=O)C(C)C)C(C)C)C(C)C)C(C)C)C(C)C)C(=O)N[C@@H](Cc1c[nH]c2ccccc12)C(=O)NCCO [compound 7049] (For-VGA[dV]A[dV]V[dV]W[dL]W[dL]W[dD](NHMe)W-NHCH2CH2OH) | 100 | - | 1.10
2 | CNC(=O)C[C@@H](NC(=O)[C@H](Cc1c[nH]c2ccccc12)NC(=O)[C@H](NC(=O)[C@H](Cc1c[nH]c2ccccc12)NC(=O)[C@@H](CC(C)C)NC(=O)[C@H](Cc1c[nH]c2ccccc12)NC(=O)[C@H](NC(=O)[C@@H](NC(=O)[C@@H](CC(C)C)NC(=O)[C@H](C)NC(=O)[C@H](NC(=O)[C@H](C)NC(=O)CNC(=O)[C@@H](NC=O)C(C)C)C(C)C)C(C)C)C(C)C)C(C)C)C(=O)N[C@@H](Cc1c[nH]c2ccccc12)C(=O)NCCO [compound 2425] (For-VGA[dV]A[dL]V[dV]W[dL]W[dV]W[dD](NHMe)W-NHCH2CH2OH) | 100 | - | 1.07
3 | CC(C)C[C@@H](NC(=O)[C@H](C)NC(=O)CNC(=O)[C@@H](NC=O)C(C)C)C(=O)N[C@@H](C)C(=O)N[C@@H](C(=O)N[C@H](C(=O)N[C@@H](C(=O)N[C@@H](Cc1c[nH]c2ccccc12)C(=O)N[C@H](CC(C)C)C(=O)N[C@@H](Cc1c[nH]c2ccccc12)C(=O)N[C@@H](C(=O)N[C@@H](Cc1c[nH]c2ccccc12)C(=O)N[C@@H](C(=O)N[C@@H](Cc1c[nH]c2ccccc12)C(=O)NCCO)C(C)C)C(C)C)C(C)C)C(C)C)[C@H](C)O [compound 6549] (For-VGA[dL]A[dT]V[dV]W[dL]W[dV]W[dV]W-NHCH2CH2OH) | 100 | - | 1.07
4 | CC(C)C[C@@H](NC(=O)[C@@H](NC(=O)[C@H](NC(=O)[C@H](C)NC(=O)[C@H](NC(=O)[C@H](C)NC(=O)CNC(=O)[C@@H](NC=O)C(C)C)C(C)C)C(C)C)C(C)C)C(=O)N[C@@H](Cc1c[nH]c2ccccc12)C(=O)N[C@@H](C(=O)N[C@@H](Cc1c[nH]c2ccccc12)C(=O)N[C@@H](C(=O)N[C@@H](Cc1c[nH]c2ccccc12)C(=O)N[C@@H](C(=O)N[C@@H](Cc1c[nH]c2ccccc12)C(=O)NCCO)[C@H](C)O)C(C)C)C(C)C [compound 7050] (For-VGA[dV]A[dV]V[dL]W[dV]W[dV]W[dT]W-NHCH2CH2OH) | 100 | - | 1.21
5 | CC(C)C[C@@H](NC(=O)[C@H](Cc1c[nH]c2ccccc12)NC(=O)[C@@H](CC(C)C)NC(=O)[C@@H](NC(=O)[C@H](NC(=O)[C@H](C)NC(=O)[C@H](NC(=O)[C@H](C)NC(=O)CNC(=O)[C@@H](NC=O)C(C)C)C(C)C)C(C)C)C(C)C)C(=O)N[C@@H](Cc1c[nH]c2ccccc12)C(=O)N[C@@H](C(=O)N[C@@H](Cc1c[nH]c2ccccc12)C(=O)N[C@@H](C(=O)N[C@@H](Cc1c[nH]c2ccccc12)C(=O)NCCO)C(C)C)C(C)C [compound 100] (For-VGA[dV]A[dV]V[dL]W[dL]W[dV]W[dV]W-NHCH2CH2OH) | 9.5 | ++ | 1.18
6 | CC(C)C[C@@H](NC(=O)[C@H](C)NC(=O)[C@H](NC(=O)[C@H](C)NC(=O)CNC(=O)[C@@H](NC=O)C(C)C)[C@H](C)O)C(=O)N[C@H](C(=O)N[C@H](CC(C)C)C(=O)N[C@@H](Cc1c[nH]c2ccccc12)C(=O)N[C@H](CC(C)C)C(=O)N[C@@H](Cc1c[nH]c2ccccc12)C(=O)N[C@H](CC(C)C)C(=O)N[C@@H](Cc1c[nH]c2ccccc12)C(=O)N[C@H](CC(C)C)C(=O)N[C@@H](Cc1c[nH]c2ccccc12)C(=O)NCCO)C(C)C [compound 5618] (For-VGA[dT]A[dL]V[dL]W[dL]W[dL]W[dL]W-NHCH2CH2OH) | 85.1 | - | 1.13
7 | CNC(=O)C[C@@H](NC(=O)[C@@H](NC(=O)[C@@H](CC(C)C)NC(=O)[C@H](C)NC(=O)[C@H](NC(=O)[C@H](C)NC(=O)CNC(=O)[C@@H](NC=O)C(C)C)C(C)C)C(C)C)C(=O)N[C@@H](Cc1c[nH]c2ccccc12)C(=O)N[C@@H](C(=O)N[C@@H](Cc1c[nH]c2ccccc12)C(=O)N[C@H](CC(C)C)C(=O)N[C@@H](Cc1c[nH]c2ccccc12)C(=O)N[C@H](CC(C)C)C(=O)N[C@@H](Cc1c[nH]c2ccccc12)C(=O)NCCO)C(C)C [compound 603] (For-VGA[dV]A[dL]V[dD](NHMe)W[dV]W[dL]W[dL]W-NHCH2CH2OH) | 100 | - | 1.10
8 | CC(C)C[C@@H](NC(=O)[C@H](Cc1c[nH]c2ccccc12)NC(=O)[C@H](NC(=O)[C@@H](NC(=O)[C@H](NC(=O)[C@H](C)NC(=O)[C@H](NC(=O)[C@H](C)NC(=O)CNC(=O)[C@@H](NC=O)C(C)C)C(C)C)C(C)C)C(C)C)C(C)C)C(=O)N[C@@H](Cc1c[nH]c2ccccc12)C(=O)N[C@H](CC(C)C)C(=O)N[C@@H](Cc1c[nH]c2ccccc12)C(=O)N[C@@H](C(=O)N[C@@H](Cc1c[nH]c2ccccc12)C(=O)NCCO)C(C)C [compound 5742] (For-VGA[dV]A[dV]V[dV]W[dL]W[dL]W[dV]W-NHCH2CH2OH) | 11.1 | ++ | 1.16
9 | CNC(=O)C[C@@H](NC(=O)[C@H](Cc1c[nH]c2ccccc12)NC(=O)[C@H](NC(=O)[C@H](Cc1c[nH]c2ccccc12)NC(=O)[C@@H](CC(C)C)NC(=O)[C@H](Cc1c[nH]c2ccccc12)NC(=O)[C@H](NC(=O)[C@@H](NC(=O)[C@H](NC(=O)[C@H](C)NC(=O)[C@@H](CC(C)C)NC(=O)[C@H](C)NC(=O)CNC(=O)[C@@H](NC=O)C(C)C)C(C)C)C(C)C)C(C)C)C(C)C)C(=O)N[C@@H](Cc1c[nH]c2ccccc12)C(=O)NCCO [compound 3499] (For-VGA[dL]A[dV]V[dV]W[dL]W[dV]W[dD](NHMe)W-NHCH2CH2OH) | 100 | + | 1.01
10 | CC(C)C[C@@H](NC(=O)[C@H](C)NC(=O)[C@H](NC(=O)[C@H](C)NC(=O)CNC(=O)[C@@H](NC=O)C(C)C)C(C)C)C(=O)N[C@H](C(=O)N[C@@H](C(=O)N[C@@H](Cc1c[nH]c2ccccc12)C(=O)N[C@H](CC(C)C)C(=O)N[C@@H](Cc1c[nH]c2ccccc12)C(=O)N[C@@H](C(=O)N[C@@H](Cc1c[nH]c2ccccc12)C(=O)N[C@H](CC(C)C)C(=O)N[C@@H](Cc1c[nH]c2ccccc12)C(=O)NCCO)[C@H](C)O)[C@H](C)O)C(C)C [compound 4195] (For-VGA[dV]A[dL]V[dT]W[dL]W[dT]W[dL]W-NHCH2CH2OH) | 90.6 | - | 1.19
11 | CC(C)C[C@@H](NC(=O)[C@H](C)NC(=O)[C@H](NC(=O)[C@H](C)NC(=O)CNC(=O)[C@@H](NC=O)C(C)C)[C@H](C)O)C(=O)N[C@H](C(=O)N[C@@H](C(=O)N[C@@H](Cc1c[nH]c2ccccc12)C(=O)N[C@@H](C(=O)N[C@@H](Cc1c[nH]c2ccccc12)C(=O)N[C@H](CC(C)C)C(=O)N[C@@H](Cc1c[nH]c2ccccc12)C(=O)N[C@H](CC(C)C)C(=O)N[C@@H](Cc1c[nH]c2ccccc12)C(=O)NCCO)[C@H](C)O)C(C)C)C(C)C [compound 6896] (For-VGA[dT]A[dL]V[dV]W[dT]W[dL]W[dL]W-NHCH2CH2OH) | 100 | - | 1.18
12 | CC(C)C[C@@H](NC(=O)[C@H](C)NC(=O)CNC(=O)[C@@H](NC=O)C(C)C)C(=O)N[C@@H](C)C(=O)N[C@H](CC(C)C)C(=O)N[C@H](C(=O)N[C@H](CC(C)C)C(=O)N[C@@H](Cc1c[nH]c2ccccc12)C(=O)N[C@@H](C(=O)N[C@@H](Cc1c[nH]c2ccccc12)C(=O)N[C@H](CC(C)C)C(=O)N[C@@H](Cc1c[nH]c2ccccc12)C(=O)N[C@@H](C(=O)N[C@@H](Cc1c[nH]c2ccccc12)C(=O)NCCO)[C@H](C)O)C(C)C)C(C)C [compound 770] (For-VGA[dL]A[dL]V[dL]W[dV]W[dL]W[dT]W-NHCH2CH2OH) | 100 | - | 1.11
13 | CC(C)C[C@@H](NC(=O)[C@H](Cc1c[nH]c2ccccc12)NC(=O)[C@H](NC(=O)[C@@H](NC(=O)[C@H](NC(=O)[C@H](C)NC(=O)[C@H](NC(=O)[C@H](C)NC(=O)CNC(=O)[C@@H](NC=O)C(C)C)C(C)C)C(C)C)C(C)C)[C@H](C)O)C(=O)N[C@@H](Cc1c[nH]c2ccccc12)C(=O)N[C@H](CC(C)C)C(=O)N[C@@H](Cc1c[nH]c2ccccc12)C(=O)N[C@@H](C(=O)N[C@@H](Cc1c[nH]c2ccccc12)C(=O)NCCO)C(C)C [compound 1523] (For-VGA[dV]A[dV]V[dT]W[dL]W[dL]W[dV]W-NHCH2CH2OH) | 100 | + | 1.04
